Laboratory results taken from PMC6906472, “Purification and biological activity of natural variants synthesized by tridecaptin M gene cluster and in vitro drug-kinetics of this antibiotic class” (Scientific Reports, 2019).
Like-named read-outs stand apart in the source and are kept apart here. Square brackets hold non-standard residues; d marks the D form. Peptide text beside a SMILES is read from it. * marks the point of attachment. d(aIle) = CC[C@H](C)[C@@H](N)C(=O)O; X1 = CC[C@H](C)CCCCC(=O)*; dDab = NCC[C@@H](N)C(=O)O; Dab = NCC[C@H](N)C(=O)O

How the values were obtained:
E. coli CF-23 (mcr-1) = tested on: E. coli CF-23 (mcr-1)
Method: (§1) MICs for all the compounds were determined by broth microdilution assay, according to CLSI guidelines[16] as described previously. Haemolysis experiments were performed with fresh rabbit RBCs[11]. All the compounds were tested at a concentration of 128 µg/ml. To obtain rabbit blood, the experiments and the protocols were in accordance with the ethical standards of the Institutional Animal Ethics Committee (IAEC) of the Institute of Microbial Technology approved (Approval no. IAEC/17/11) by Committee for the Purpose of Control And Supervision of Experiments on Animals (CPCSEA, Government of India).

A. baumannii ATCC 19606 = tested on: A. baumannii ATCC 19606
Method: as §1

P. aeruginosa ATCC 27853 = tested on: P. aeruginosa ATCC 27853
Method: as §1

[1] = tested on: K. pneumoniae AH-3 (Col-R)
Method: as §1

[2] = tested on: K. pneumoniae ATCC 700603
Method: as §1

[3] = tested on: K. pneumoniae AH-16 (Col-R)
Method: as §1

K. pneumoniae P3R (M1-R) = conditions: broth microdilution, CLSI guidelines; M1-resistant mutant of ATCC 700603
Method: as §1

[4] = tested on: Serratia marcescens MTCC 97
Method: as §1

[5] = tested on: Proteus mirabilis MTCC 1429
Method: as §1

[6] = broth microdilution, CLSI guidelines

Structure (SMILES)	Peptide MIC (E. coli CF-23 (mcr-1)) [µg/mL]	Peptide MIC (A. baumannii ATCC 19606; ATCC 19606) [µg/mL]	Peptide MIC (P. aeruginosa ATCC 27853; ATCC 27853) [µg/mL]	Peptide MIC [1] [µg/mL]	Peptide MIC [2] [µg/mL]	Peptide MIC [3] [µg/mL]	Peptide MIC (K. pneumoniae P3R (M1-R)) [µg/mL]	Peptide MIC [4] [µg/mL]	Peptide MIC [5] [µg/mL]	Peptide MIC (A. baumannii ATCC 19606; [6]) [µg/mL]	Peptide MIC (P. aeruginosa ATCC 27853; [6]) [µg/mL]
CC[C@H](C)CCCCC(=O)NCC(=O)N[C@H](CCN)C(=O)NCC(=O)N[C@H](CO)C(=O)N[C@H](Cc1c[nH]c2ccccc12)C(=O)N[C@@H](CO)C(=O)N[C@@H](CCN)C(=O)N[C@H](CCN)C(=O)N[C@H](C(=O)N[C@@H](CCC(=O)O)C(=O)N[C@H](C(=O)N[C@@H](C(=O)N[C@@H](CO)C(=O)O)C(C)C)C(C)C)[C@@H](C)CC [M2] (X1-G[dDab]G[dS][dW]S[Dab][dDab]IEV[dV]S-OH)	16	>32	>32	8	8	>16	>32	>16	>16	–	–
CC[C@H](C)CCCCC(=O)NCC(=O)N[C@H](CCN)C(=O)NCC(=O)N[C@H](CO)C(=O)N[C@H](Cc1ccccc1)C(=O)N[C@@H](CO)C(=O)N[C@@H](CCN)C(=O)N[C@H](CCN)C(=O)N[C@H](C(=O)N[C@@H](CCC(=O)O)C(=O)N[C@H](C(=O)N[C@@H](C(=O)N[C@@H](CO)C(=O)O)C(C)C)[C@@H](C)CC)[C@@H](C)CC [M5] (X1-G[dDab]G[dS][dF]S[Dab][dDab]IEI[dV]S-OH)	16	>32	>32	16	16	16	16	8	16	–	–
CC[C@H](C)CCCCC(=O)NCC(=O)N[C@H](CCN)C(=O)NCC(=O)N[C@H](CO)C(=O)N[C@H](Cc1c[nH]c2ccccc12)C(=O)N[C@@H](CO)C(=O)N[C@@H](CCN)C(=O)N[C@H](CCN)C(=O)N[C@H](C(=O)N[C@@H](CCC(=O)O)C(=O)N[C@H](C(=O)N[C@@H](C(=O)N[C@@H](CO)C(=O)O)C(C)C)[C@@H](C)CC)[C@@H](C)CC [M6] (X1-G[dDab]G[dS][dW]S[Dab][dDab]IEI[dV]S-OH)	4	>32	>32	4	4	2	16	16	>16	–	–
CC[C@H](C)CCCCC(=O)NCC(=O)N[C@H](CCN)C(=O)NCC(=O)N[C@H](CO)C(=O)N[C@H](Cc1c[nH]c2ccccc12)C(=O)N[C@@H](CO)C(=O)N[C@@H](CCN)C(=O)N[C@H](CCN)C(=O)N[C@H](C(=O)N[C@@H](CCC(=O)O)C(=O)N[C@H](C(=O)N[C@@H](C(=O)N[C@@H](CO)C(=O)O)[C@@H](C)CC)[C@@H](C)CC)C(C)C [M7] (X1-G[dDab]G[dS][dW]S[Dab][dDab]VEI[d(aIle)]S-OH)	16	>32	>32	8	8	8	16	8	>16	–	–
CC[C@H](C)CCCCC(=O)NCC(=O)N[C@H](CCN)C(=O)NCC(=O)N[C@H](CO)C(=O)N[C@H](Cc1ccccc1)C(=O)N[C@@H](CO)C(=O)N[C@@H](CCN)C(=O)N[C@H](CCN)C(=O)N[C@H](C(=O)N[C@@H](CCC(=O)O)C(=O)N[C@H](C(=O)N[C@@H](C(=O)N[C@@H](CO)C(=O)O)[C@@H](C)CC)[C@@H](C)CC)[C@@H](C)CC [M8] (X1-G[dDab]G[dS][dF]S[Dab][dDab]IEI[d(aIle)]S-OH)	4	–	–	8	4	4	128	16	>16	128	>128
